Tests used:
Assay in all cases: relative viability (nuclei count vs DMSO), 5 days (fraction); higher = more cells survive
[1] = compound: COc1cc(Nc2ncc3c(n2)-c2ccc(Cl)cc2C(c2c(F)cccc2OC)=NC3)ccc1C(=O)O [Alisertib] + Nc1nc2[nH]cc(CCc3ccc(C(=O)N[C@@H](CCC(=O)O)C(=O)O)cc3)c2c(=O)[nH]1 [Pemetrexed] (partner 0.2 µM)
Procedure, shortened: (§1)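 Each reported value is a median over duplicate plates. It expresses relative viability: treated-well nuclei count divided by vehicle-well nuclei count. Lung cancer cell lines in 1536-well plates were dosed by pin tool a day after seeding, alone with one drug or with a fixed anchor-drug dose plus five library-drug doses (not always all listed) in √10 steps, and nuclei were counted after 5 days.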

[2] = compound: COc1cc(Nc2ncc3c(n2)-c2ccc(Cl)cc2C(c2c(F)cccc2OC)=NC3)ccc1C(=O)O [Alisertib] + Cc1nc(NC(=O)N2CCC[C@H]2C(N)=O)sc1-c1ccnc(C(C)(C)C(F)(F)F)c1 [Alpelisib] (partner 2 µM)
Procedure, shortened: as §1

[3] = compound: COc1cc(Nc2ncc3c(n2)-c2ccc(Cl)cc2C(c2c(F)cccc2OC)=NC3)ccc1C(=O)O [Alisertib] + O=C(c1cc(Cc2n[nH]c(=O)c3ccccc23)ccc1F)N1CCN(C(=O)C2CC2)CC1 [Olaparib] (partner 8 µM)
Procedure, shortened: as §1

[4] = compound: COc1cc(Nc2ncc3c(n2)-c2ccc(Cl)cc2C(c2c(F)cccc2OC)=NC3)ccc1C(=O)O [Alisertib] + COc1cc2c(Oc3ccc(NC(=O)C4(C(=O)Nc5ccc(F)cc5)CC4)cc3F)ccnc2cc1OCCCN1CCOCC1 [Foretinib] (partner 0.25 µM)
Procedure, shortened: as §1

Cell Line: HOP-62
- relative viability ([1]; first compound 0.005 µM): 0.282
- relative viability ([1]; first compound 0.01581 µM): 0.283
- relative viability ([1]; first compound 0.05 µM): 0.204
- relative viability ([1]; first compound 0.1581 µM): 0.171
- relative viability ([1]; first compound 0.5 µM): 0.112
- relative viability ([2]; first compound 0.005 µM): 0.926
- relative viability ([2]; first compound 0.01581 µM): 0.976
- relative viability ([2]; first compound 0.05 µM): 0.345
- relative viability ([2]; first compound 0.1581 µM): 0.198
- relative viability ([2]; first compound 0.5 µM): 0.133
- relative viability ([3]; first compound 0.005 µM): 0.361
- relative viability ([3]; first compound 0.01581 µM): 0.328
- relative viability ([3]; first compound 0.05 µM): 0.134
- relative viability ([3]; first compound 0.1581 µM): 0.132
- relative viability ([3]; first compound 0.5 µM): 0.0731
- relative viability ([4]; first compound 0.005 µM): 1.08
- relative viability ([4]; first compound 0.01581 µM): 0.876
- relative viability ([4]; first compound 0.05 µM): 0.285
- relative viability ([4]; first compound 0.1581 µM): 0.256
- relative viability ([4]; first compound 0.5 µM): 0.205

Cell Line: NCI-H358
- relative viability ([1]; first compound 0.005 µM): 0.162
- relative viability ([1]; first compound 0.01581 µM): 0.165
- relative viability ([1]; first compound 0.05 µM): 0.167
- relative viability ([1]; first compound 0.1581 µM): 0.112
- relative viability ([1]; first compound 0.5 µM): 0.0889
- relative viability ([2]; first compound 0.005 µM): 0.753
- relative viability ([2]; first compound 0.01581 µM): 0.584
- relative viability ([2]; first compound 0.05 µM): 0.257
- relative viability ([2]; first compound 0.1581 µM): 0.19
- relative viability ([2]; first compound 0.5 µM): 0.151
- relative viability ([3]; first compound 0.005 µM): 0.529
- relative viability ([3]; first compound 0.01581 µM): 0.284
- relative viability ([3]; first compound 0.05 µM): 0.117
- relative viability ([3]; first compound 0.1581 µM): 0.111
- relative viability ([3]; first compound 0.5 µM): 0.12
- relative viability ([4]; first compound 0.005 µM): 0.608
- relative viability ([4]; first compound 0.01581 µM): 0.485
- relative viability ([4]; first compound 0.05 µM): 0.181
- relative viability ([4]; first compound 0.1581 µM): 0.111
- relative viability ([4]; first compound 0.5 µM): 0.0732

Cell Line: SK-MES-1
- relative viability ([1]; first compound 0.005 µM): 0.904
- relative viability ([1]; first compound 0.01581 µM): 0.787
- relative viability ([1]; first compound 0.05 µM): 0.661
- relative viability ([1]; first compound 0.1581 µM): 0.442
- relative viability ([1]; first compound 0.5 µM): 0.191
- relative viability ([2]; first compound 0.005 µM): 0.681
- relative viability ([2]; first compound 0.01581 µM): 0.717
- relative viability ([2]; first compound 0.05 µM): 0.341
- relative viability ([2]; first compound 0.1581 µM): 0.172
- relative viability ([2]; first compound 0.5 µM): 0.139
- relative viability ([3]; first compound 0.005 µM): 0.594
- relative viability ([3]; first compound 0.01581 µM): 0.614
- relative viability ([3]; first compound 0.05 µM): 0.351
- relative viability ([3]; first compound 0.1581 µM): 0.192
- relative viability ([3]; first compound 0.5 µM): 0.168
- relative viability ([4]; first compound 0.005 µM): 0.779
- relative viability ([4]; first compound 0.01581 µM): 0.928
- relative viability ([4]; first compound 0.05 µM): 0.74
- relative viability ([4]; first compound 0.1581 µM): 0.233
- relative viability ([4]; first compound 0.5 µM): 0.189

Cell Line: NCI-H1666
- relative viability ([1]; first compound 0.005 µM): 0.829
- relative viability ([1]; first compound 0.01581 µM): 0.844
- relative viability ([1]; first compound 0.05 µM): 0.791
- relative viability ([1]; first compound 0.1581 µM): 0.672
- relative viability ([1]; first compound 0.5 µM): 0.537
- relative viability ([2]; first compound 0.005 µM): 1.05
- relative viability ([2]; first compound 0.01581 µM): 0.721
- relative viability ([2]; first compound 0.05 µM): 0.455
- relative viability ([2]; first compound 0.1581 µM): 0.268
- relative viability ([2]; first compound 0.5 µM): 0.224
- relative viability ([3]; first compound 0.005 µM): 0.739
- relative viability ([3]; first compound 0.01581 µM): 0.739
- relative viability ([3]; first compound 0.05 µM): 0.706
- relative viability ([3]; first compound 0.1581 µM): 0.629
- relative viability ([3]; first compound 0.5 µM): 0.511
- relative viability ([4]; first compound 0.005 µM): 0.841
- relative viability ([4]; first compound 0.01581 µM): 0.82
- relative viability ([4]; first compound 0.05 µM): 0.597
- relative viability ([4]; first compound 0.1581 µM): 0.415
- relative viability ([4]; first compound 0.5 µM): 0.403

Cell Line: NCI-H1355
- relative viability ([1]; first compound 0.005 µM): 0.904
- relative viability ([1]; first compound 0.01581 µM): 0.875
- relative viability ([1]; first compound 0.05 µM): 0.65
- relative viability ([1]; first compound 0.1581 µM): 0.27
- relative viability ([1]; first compound 0.5 µM): 0.197
- relative viability ([2]; first compound 0.005 µM): 0.767
- relative viability ([2]; first compound 0.01581 µM): 0.783
- relative viability ([2]; first compound 0.05 µM): 0.296
- relative viability ([2]; first compound 0.1581 µM): 0.197
- relative viability ([2]; first compound 0.5 µM): 0.154
- relative viability ([3]; first compound 0.005 µM): 0.575
- relative viability ([3]; first compound 0.01581 µM): 0.476
- relative viability ([3]; first compound 0.05 µM): 0.191
- relative viability ([3]; first compound 0.1581 µM): 0.152
- relative viability ([3]; first compound 0.5 µM): 0.159
- relative viability ([4]; first compound 0.005 µM): 0.88
- relative viability ([4]; first compound 0.01581 µM): 0.892
- relative viability ([4]; first compound 0.05 µM): 0.343
- relative viability ([4]; first compound 0.1581 µM): 0.244
- relative viability ([4]; first compound 0.5 µM): 0.202

Cell Line: HCC-827
- relative viability ([1]; first compound 0.005 µM): 0.277
- relative viability ([1]; first compound 0.01581 µM): 0.264
- relative viability ([1]; first compound 0.05 µM): 0.25
- relative viability ([1]; first compound 0.1581 µM): 0.232
- relative viability ([1]; first compound 0.5 µM): 0.173
- relative viability ([2]; first compound 0.005 µM): 1.05
- relative viability ([2]; first compound 0.01581 µM): 0.913
- relative viability ([2]; first compound 0.05 µM): 0.321
- relative viability ([2]; first compound 0.1581 µM): 0.282
- relative viability ([2]; first compound 0.5 µM): 0.232
- relative viability ([3]; first compound 0.005 µM): 0.639
- relative viability ([3]; first compound 0.01581 µM): 0.654
- relative viability ([3]; first compound 0.05 µM): 0.201
- relative viability ([3]; first compound 0.1581 µM): 0.293
- relative viability ([3]; first compound 0.5 µM): 0.257
- relative viability ([4]; first compound 0.005 µM): 1.05
- relative viability ([4]; first compound 0.01581 µM): 0.726
- relative viability ([4]; first compound 0.05 µM): 0.333
- relative viability ([4]; first compound 0.1581 µM): 0.276
- relative viability ([4]; first compound 0.5 µM): 0.237

Cell Line: HARA
- relative viability ([1]; first compound 0.005 µM): 0.262
- relative viability ([1]; first compound 0.01581 µM): 0.211
- relative viability ([1]; first compound 0.05 µM): 0.26
- relative viability ([1]; first compound 0.1581 µM): 0.21
- relative viability ([1]; first compound 0.5 µM): 0.125
- relative viability ([2]; first compound 0.005 µM): 0.86
- relative viability ([2]; first compound 0.01581 µM): 0.878
- relative viability ([2]; first compound 0.05 µM): 0.363
- relative viability ([2]; first compound 0.1581 µM): 0.129
- relative viability ([2]; first compound 0.5 µM): 0.0864
- relative viability ([3]; first compound 0.005 µM): 0.763
- relative viability ([3]; first compound 0.01581 µM): 0.703
- relative viability ([3]; first compound 0.05 µM): 0.17
- relative viability ([3]; first compound 0.1581 µM): 0.328
- relative viability ([3]; first compound 0.5 µM): 0.146
- relative viability ([4]; first compound 0.005 µM): 0.864
- relative viability ([4]; first compound 0.01581 µM): 0.663
- relative viability ([4]; first compound 0.05 µM): 0.316
- relative viability ([4]; first compound 0.1581 µM): 0.148
- relative viability ([4]; first compound 0.5 µM): 0.101

Cell Line: HCC-366
- relative viability ([1]; first compound 0.005 µM): 0.169
- relative viability ([1]; first compound 0.01581 µM): 0.131
- relative viability ([1]; first compound 0.05 µM): 0.0451
- relative viability ([1]; first compound 0.1581 µM): 0.0421
- relative viability ([1]; first compound 0.5 µM): 0.0514
- relative viability ([2]; first compound 0.005 µM): 0.337
- relative viability ([2]; first compound 0.01581 µM): 0.46
- relative viability ([2]; first compound 0.05 µM): 0.0611
- relative viability ([2]; first compound 0.1581 µM): 0.0117
- relative viability ([2]; first compound 0.5 µM): 0.0152
- relative viability ([3]; first compound 0.005 µM): 0.32
- relative viability ([3]; first compound 0.01581 µM): 0.173
- relative viability ([3]; first compound 0.05 µM): 0.0172
- relative viability ([3]; first compound 0.1581 µM): 0.0252
- relative viability ([3]; first compound 0.5 µM): 0.0457
- relative viability ([4]; first compound 0.005 µM): 0.975
- relative viability ([4]; first compound 0.01581 µM): 0.156
- relative viability ([4]; first compound 0.05 µM): 0.035
- relative viability ([4]; first compound 0.1581 µM): 0.054
- relative viability ([4]; first compound 0.5 µM): 0.055
